Results on five compounds are retold here after US20080206738A1, “Compositions and methods for modulating S-nitrosoglutathione reductase” (Duke University, priority 2003, published 2008).

Experiment [1] has as its system LPS-challenged GSNOR−/− mice. Nature of the experiment: iNOS inhibition with 1400 W in LPS-challenged GSNOR−/− mice (endotoxic shock). The class given is in vivo, mouse. From the text: Blood was obtained by cardiac puncture after animals were euthanized by CO2 inhalation. The following serum chemistries were quantified by Antech Diagnostics (Farmingdale, N.Y.): alanine aminotransferase (ALT), aspartate aminotransferase (AST), creatine phosphokinase (CPK), urea nitrogen (BUN), creatinine, amylase, lipase, lactate dehydrogenase, alkaline phosphatase, total protein, globulin, albumin, calcium, magnesium, sodium, potassium, chloride, phosphorus, glucose, bilirubin, cholesterol, triglycerides, and osmolality.
Serum nitrate and nitrite were measured by capillary electrophoresis (CE) (Zunic et al., 1999) with a P/ACE MDQ system (Beckman) and by chemiluminescence (Sievers NO Analyzer). For CE, sera were diluted (1:10) with water and filtered through a 5 kDa cut-off membrane. Electrophoresis of the filtered samples and of nitrate and nitrite standards was carried out in a neutral capillary with Tris buffer (100 mM, pH 8.0), and monitored by absorbance at 214 nm. Nitrite concentrations are higher when measured by CE than by chemiluminescence (Zunic et al., 1999), but no relative differences between CE and chemiluminescence were observed.
LPS (E. coli, serotype 026:B6, Sigma) at a dosage of 150,000 endotoxin units/g (EU/g) was injected intraperitoneally into C57BL/6 and GSNOR^−/− mice. The mice were matched for age (11-12 weeks old), gender, and weight. LPS used for the males was lot number 050K4117 (15 million EU/mg) and LPS used for the females was lot number 101K4080 (3 million EU/mg). Studies were done in 45 additional male mice (22 wild-type and 23 GSNOR^−/−) administered lot number 101K4080. […] Phosphate-buffered saline (PBS, 20 μl/g) was injected in controls. In additional sets of experiments, LPS-challenged GSNOR^−/− mice were injected subcutaneously with the iNOS inhibitor 1400 W (1 μg/g, Cayman) or PBS (10 μl/g). Injections were performed at 6, 24 and 30 hours after LPS, or at 24, 42 and 48 hours after LPS.
Liver homogenates were prepared in lysis buffer (20 mM Tris-HCl, pH 8.0, 0.5 mM EDTA, 100 μM diethylenetriamine pentaacetic acid, 0.1% NP-40 and 1 mM phenylmethylsulfonyl fluoride). SNO levels in the total lysate and in a fraction filtered through a 5 kDa cut-off ultrafiltration membrane (low-mass SNO) were measured by photolysis-chemiluminescence (Liu et al., 2000b) and normalized for protein content.
Survival data on day 6 after LPS treatment were analyzed by both the χ^2 test and the Fisher exact test of contingency tables, with similar results. Blood pressure, SNO levels and serum chemistries were analyzed with the Student's t-test or with the nonparametric Mann-Whitney test.
Additional experiments were performed to establish the contribution of nitrosative stress to the pathogenesis of endotoxic shock. LPS-challenged GSNOR^−/− mice were treated with 1400 W, a selective iNOS inhibitor. Administration of 1400 W, initiated 6 h following LPS injection, reduced serum nitrate (i.e., NOS activity) by about 50% (FIG. 7A, P=0.015) and liver injury by about 90% (FIG. 7C, P=0.020). This improvement coincided with a reduction of liver SNO by about 90% (FIG. 7B). […] By comparison, PBS (volume control) had little effect (FIG. 7D vs. FIG. 3D). When administration of 1400 W was delayed for 24 h following LPS injection, this allowed SNOs to accumulate to hazardous levels, and the protection conferred by NOS inhibition was lost (3 out of 5 female GSNOR^−/− mice died).

The subject of experiment [2] is animal models of endotoxic shock. The settings on record: literature (Feihl et al., 2001; Ou et al., 1997); cited from earlier work.
In a further experiment the test system is cardiac β-ARs. Nature of the experiment: Chronic isoproterenol-induced cardiac hypertrophy and β-AR down-regulation in mice (mini-osmotic pump). Type of experiment: in vivo, mouse. Here is the method:
FIGS. 13A-13C: Results of Cardiac Studies. FIG. 13A: Heart weight to body weight ratio (hw:bw, mg:g) (n=10); FIG. 13B: Cardiac β-AR density (BMax, fmol/mg protein (n=5); FIG. 13C: Cardiac PARK protein expression levels (n=4), in mice following mini-osmotic pump implantation and treatment for 7 days with either PBS, isoproterenol (ISO) (30 mg/kg/day), GSNO (10 mg/kg/day) or a combination of ISO and GSNO. All data expressed as mean (+/−SEM) (*P<0.05 versus PBS treated mice, +P<0.05 versus ISO treated mice, unpaired t test).
One well established model of experimental cardiac hypertrophy in the mouse involves the chronic administration of the β-AR agonist, isoproterenol. This treatment leads to a functional uncoupling and down-regulation of cardiac β-ARs and the development of a significant increase in wall mass. Experiments were performed to study the effects of GSNO on the development of cardiac hypertrophy and its ability to alter the pattern of β-AR down-regulation associated with chronic isoproterenol stimulation.
Whole cell and membrane receptor/ligand binding was performed to assess functional affinity of receptor for ligand and overall receptor density as described previously. In particular, whole cell and membrane binding was assessed for cells treated with multiple concentrations of NO/SNO in the presence and absence of desensitizing conditions (agonist pre-stimulation).
In contrast, the combined infusion of GSNO with ISO maintained P receptor density (FIG. 13B) because it inhibits PARK (GRK2) (FIGS. 12A-12B). Therefore, inhibitors of GSNOR alone or in combination with β-agonists could be used to improve heart failure, or other vascular disorders such as hypertension and asthma.

Experiment [3] concerns the target T1, GRK2 (Homo sapiens, UniProt P25098).
T1 sequence (P25098 1-689): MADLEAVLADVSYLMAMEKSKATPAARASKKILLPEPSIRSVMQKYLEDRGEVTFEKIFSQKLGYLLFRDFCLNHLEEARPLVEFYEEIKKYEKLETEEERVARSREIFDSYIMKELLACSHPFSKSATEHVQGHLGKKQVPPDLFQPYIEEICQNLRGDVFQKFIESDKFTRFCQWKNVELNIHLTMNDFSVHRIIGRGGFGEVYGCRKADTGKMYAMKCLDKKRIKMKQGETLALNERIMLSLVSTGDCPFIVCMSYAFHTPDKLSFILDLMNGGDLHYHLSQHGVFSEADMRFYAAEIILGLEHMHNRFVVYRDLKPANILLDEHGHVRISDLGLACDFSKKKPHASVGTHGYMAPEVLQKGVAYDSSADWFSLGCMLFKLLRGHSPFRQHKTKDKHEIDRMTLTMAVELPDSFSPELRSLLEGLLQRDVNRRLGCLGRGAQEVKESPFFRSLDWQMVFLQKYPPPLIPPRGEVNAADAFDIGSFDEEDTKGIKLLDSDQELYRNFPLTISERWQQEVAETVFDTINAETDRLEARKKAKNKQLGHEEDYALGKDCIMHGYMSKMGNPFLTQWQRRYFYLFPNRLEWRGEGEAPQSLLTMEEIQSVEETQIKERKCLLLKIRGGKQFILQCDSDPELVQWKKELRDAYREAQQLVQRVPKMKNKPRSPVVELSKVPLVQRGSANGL
Nature of the experiment: Purified GRK2-mediated in vitro phosphorylation of a soluble peptide substrate (RRREEEEESAAA). The class given is biochemical. The following applies: 500, 50, and 5 μM; n=2; P<0.05. Here is the method: FIGS. 12A-12B: Effect of cysNO (A: 500, 50, and 5 μM) and GSNO (B: 500, 50, and 5 μM) on purified GRK2 mediated in vitro phosphorylation of a soluble peptide substrate (RRREEEEESAAA; SEQ ID NO:30) (n=2; *P<0.05).
To confirm this, experiments were performed to examine the capacity of SNOs to inhibit purified GRK2-mediated phosphorylation of a synthetic peptide substrate (RRREEEEESAAA; SEQ ID NO:30).

Experiment [4] has as its target T1, GRK2. Nature of the experiment: GRK2-mediated phosphorylation of rhodopsin from purified bovine rod outer segments. Type of experiment: biochemical. The following applies: cysNO 5, 50, 500 μM, light stimulated. How it is done:
(§1) FIGS. 11A-11B. Results from GRK studies. FIG. 11A. Representative gel from experiments examining the effect of cysNO (500, 50, and 5 μM) on isoproterenol (10 μM) stimulated GRK2 mediated receptor phosphorylation using purified β2-AR reconstituted in synthetic vesicles and purified GRK2. FIG. 11B: Representative gel from experiments examining the effect of cysNO (5, 50, and 500 μM) light stimulated GRK2 mediated phosphorylation of rhodopsin using purified bovine rod outer segments and purified GRK2.
(§2) Previous data provided strong evidence supporting the hypothesis that NO prevented GRK (G protein-coupled receptor kinase)-mediated phosphorylation of the β2-AR (adrenergic receptor). Further experiments were required to determine whether NO was acting directly on the receptor or the GRKs. To elucidate the site of NO action, its effect was tested on GRK2-mediated phosphorylation of the β2-AR and on a soluble peptide substrate using purified proteins in a reconstituted system.

Experiment [5] concerns the target T1, GRK2. Put plainly: GRK2-mediated phosphorylation of purified β2-AR in a reconstituted system. The following applies: cysNO 500, 50, 5 μM; isoproterenol (10 μM) stimulated; β2-AR reconstituted in synthetic vesicles. Type of experiment: biochemical. How it is done:
as §1, §2

Setting [6] is: administration of 1400 W delayed for 24 h following LPS injection.
Setting [7] is: GSNO 10 mg/kg/day via osmotic mini-pump with ISO 30 mg/kg/day.
[8] abbreviates: ISO infused for 7 days using a pump (30 mg/kg/day).

In the case of `CC(=N)NCc1cccc(CN)c1` [1400 W, N-[3-(aminomethyl)benzyl]acetamidine], the “survival rate of LPS-challenged GSNOR−/− mice” value in experiment [1] (1400 W initiated 6 h following LPS injection, P=0.03) is listed as “significantly improved”. For the same compound, the “reduction of serum nitrate (i.e., NOS activity)” value in experiment [1] (GSNOR−/− mice, 1400 W 1 μg/g s.c. initiated 6 h following LPS injection, P=0.015) is on record as “about 50%”. For the same compound, in experiment [1] (GSNOR−/− mice, 1400 W initiated 6 h following LPS injection), the “reduction of liver SNO” value is “about 90%”. For the same compound, the “reduction of liver injury (serum ALT)” value in experiment [1] (GSNOR−/− mice, 1400 W initiated 6 h following LPS injection, P=0.020) was “about 90%”. Besides, the “tissue injury in kidney, pancreas, and muscle (serum markers)” value in experiment [1] (GSNOR−/− mice, 48 h after LPS treatment, 1400 W initiated 6 h following LPS) is given as “reduced”. In addition, in experiment [1] (setting [6]), the “female GSNOR−/− mice that died” value is 3 out of 5 and the “protection conferred by NOS inhibition” value is listed as “lost”. The “effect on injury in animal models of endotoxic shock” value in experiment [2] is listed as “either have little effect or worsen injury”.

As for `N[C@@H](CCC(=O)N[C@@H](CSN=O)C(=O)NCC(=O)O)C(=O)O` [GSNO, S-nitrosoglutathione], in the experiment on cardiac β-ARs (setting [7]), the “isoproterenol-stimulated changes in heart weight to body weight ratio” value was “no effect” and the β-AR down-regulation entry is given as “significantly decreased”. The β receptor density entry with cardiac β-ARs (combined infusion of GSNO with ISO) is recorded as “maintained”. Moreover, the “GRK2 mediated phosphorylation of the synthetic peptide substrate” value on GRK2 [3] is reported as “significantly inhibited”.

In the case of `CC(=N)NCCCC[C@H](N)C(=O)O` [N-(1-iminoethyl)-L-lysine, N6-(1-Iminoethyl)-L-lysine], the “effect on injury in animal models of endotoxic shock” value in experiment [2] is “either have little effect or worsen injury”.

For the compound `N[C@@H](CSN=O)C(=O)O` [cysNO], the “GRK2-mediated phosphorylation of rhodopsin” value on GRK2 [4] is recorded as “significantly decreased”. Further, the “GRK2 mediated phosphorylation of the synthetic peptide substrate” value on GRK2 [3] is recorded as “significantly inhibited”. The “GRK2-mediated phosphorylation of the purified β2-AR” value at GRK2 [5] was “significantly decreased”.

Take `CC(C)NCC(O)c1ccc(O)c(O)c1` (stereo not shown) [isoproterenol]: in the experiment on cardiac β-ARs (setting [8]), the cardiac weight result is “increases”, the “β adrenergic receptor levels” value is on record as “decreased” and the “βARK (GRK2) expression” value was “increased”.
